Tests used:
[1] = target: T1, mouse Siglec-2-Fc-Avi (CD22) (Mus musculus, UniProt P35329); assay: SPR binding affinity to mouse CD22; details: steady-state analysis
T1 construct: made in house
T1 sequence (P35329 22-708 limits assumed): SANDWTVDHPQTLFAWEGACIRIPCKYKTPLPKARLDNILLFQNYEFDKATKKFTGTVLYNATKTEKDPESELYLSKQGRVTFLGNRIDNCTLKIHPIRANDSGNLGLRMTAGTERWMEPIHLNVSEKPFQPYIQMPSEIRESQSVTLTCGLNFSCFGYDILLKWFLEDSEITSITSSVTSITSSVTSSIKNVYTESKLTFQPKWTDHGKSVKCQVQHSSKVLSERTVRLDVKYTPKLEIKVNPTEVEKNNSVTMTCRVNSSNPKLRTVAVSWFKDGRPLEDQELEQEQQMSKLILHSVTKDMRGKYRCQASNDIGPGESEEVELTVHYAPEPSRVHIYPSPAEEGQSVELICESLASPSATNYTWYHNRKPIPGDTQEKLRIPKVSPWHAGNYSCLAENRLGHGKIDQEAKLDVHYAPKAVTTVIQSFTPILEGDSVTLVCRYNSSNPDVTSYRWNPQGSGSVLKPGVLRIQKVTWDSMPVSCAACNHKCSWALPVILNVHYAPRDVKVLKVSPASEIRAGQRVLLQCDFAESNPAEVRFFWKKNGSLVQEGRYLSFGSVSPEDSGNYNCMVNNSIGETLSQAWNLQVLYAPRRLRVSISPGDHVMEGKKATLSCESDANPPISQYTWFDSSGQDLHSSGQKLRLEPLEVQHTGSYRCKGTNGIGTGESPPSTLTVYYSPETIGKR
Outline: (§1)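 Biotinylated CD22 desialylated with SialoExo (4 h, 37° C) before capture on streptavidin chip. Running buffer 10 mM HEPES, 150 mM NaCl, 0.05% Tween-20, pH 7.5, 1% DMSO, with DMSO solvent correction; 120 s dissociation. Compound affinities from steady-state analysis.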

[2] = target: T2, human Siglec-2/CD22 protein (Homo sapiens, UniProt P20273); assay: SPR binding affinity to human CD22; details: steady-state analysis
T2 construct: purchased Acro Biosystems SI2-H82E3
T2 sequence (P20273 20-847): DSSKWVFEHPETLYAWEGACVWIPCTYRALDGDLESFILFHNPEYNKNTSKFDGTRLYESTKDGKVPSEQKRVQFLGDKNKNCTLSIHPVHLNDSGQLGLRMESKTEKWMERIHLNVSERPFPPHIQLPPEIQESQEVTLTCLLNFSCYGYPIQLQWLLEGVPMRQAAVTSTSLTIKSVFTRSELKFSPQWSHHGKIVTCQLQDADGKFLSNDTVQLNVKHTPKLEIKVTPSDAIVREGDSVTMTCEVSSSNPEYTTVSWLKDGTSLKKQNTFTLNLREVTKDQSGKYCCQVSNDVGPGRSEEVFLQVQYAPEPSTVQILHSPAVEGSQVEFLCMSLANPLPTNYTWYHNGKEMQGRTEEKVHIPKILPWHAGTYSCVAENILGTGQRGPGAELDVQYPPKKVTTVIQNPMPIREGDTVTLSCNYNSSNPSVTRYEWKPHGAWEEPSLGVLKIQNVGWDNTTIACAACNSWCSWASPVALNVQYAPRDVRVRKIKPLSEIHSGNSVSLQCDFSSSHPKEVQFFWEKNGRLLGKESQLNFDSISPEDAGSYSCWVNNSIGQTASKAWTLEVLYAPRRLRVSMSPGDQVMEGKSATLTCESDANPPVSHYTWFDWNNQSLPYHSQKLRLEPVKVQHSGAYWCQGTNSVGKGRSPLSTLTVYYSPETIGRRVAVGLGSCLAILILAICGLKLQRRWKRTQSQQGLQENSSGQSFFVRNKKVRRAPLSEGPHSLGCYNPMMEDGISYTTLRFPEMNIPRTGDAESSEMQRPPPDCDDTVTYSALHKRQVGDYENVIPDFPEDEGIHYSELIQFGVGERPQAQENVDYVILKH
Outline: as §1

[3] = target: cynomolgus Siglec-2/CD22 (Macaca fascicularis, UniProt A0A2K5WCZ6); assay: biochemical; format: binding; details: SPR, steady-state analysis; read-out: Affinity cyno CD22
Outline: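 Compound binding measured by steady-state SPR analysis, 120 s dissociation, in HEPES-NaCl-Tween buffer pH 7.5 containing 1% DMSO, DMSO solvent-corrected. Surface: cyno CD22, sialic acids first stripped by SialoExo for 4 h at 37° C., then amine-coupled onto CM5.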

cynomolgus Siglec-2/CD22, sequence (A0A2K5WCZ6 entry or part of it): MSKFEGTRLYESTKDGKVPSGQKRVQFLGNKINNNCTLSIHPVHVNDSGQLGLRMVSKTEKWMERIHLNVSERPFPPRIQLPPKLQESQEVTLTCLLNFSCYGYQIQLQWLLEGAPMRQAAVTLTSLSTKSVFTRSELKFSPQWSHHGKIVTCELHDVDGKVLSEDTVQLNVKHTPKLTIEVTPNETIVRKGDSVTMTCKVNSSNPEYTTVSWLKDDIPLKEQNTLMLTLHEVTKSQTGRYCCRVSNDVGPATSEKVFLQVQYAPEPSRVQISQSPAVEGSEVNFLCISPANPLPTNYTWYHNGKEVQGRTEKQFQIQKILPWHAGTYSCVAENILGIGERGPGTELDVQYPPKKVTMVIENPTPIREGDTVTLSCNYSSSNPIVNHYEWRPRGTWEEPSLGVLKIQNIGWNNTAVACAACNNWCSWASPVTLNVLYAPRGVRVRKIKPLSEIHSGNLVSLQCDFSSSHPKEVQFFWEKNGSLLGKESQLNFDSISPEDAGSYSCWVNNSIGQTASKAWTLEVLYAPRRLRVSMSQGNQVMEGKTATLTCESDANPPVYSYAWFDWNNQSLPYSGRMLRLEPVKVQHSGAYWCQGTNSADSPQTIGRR

SMILES	Kd [1]	Kd [2]	Kd [3]
C#CCOCCCCCCO[C@]1(C(=O)O)C[C@H](O)[C@@H](NC(=O)CO)[C@H]([C@H](O)[C@H](O)CNC(=O)Cc2ccc3cc[nH]c3c2)O1 [Compound 5, (2R,4S,5R,6R)-6-((1R,2R)-3-(2-(1H-indol-6-yl)acetamido)-1,2-dihydroxypropyl)-4-hydroxy-5-(2-hydroxyacetamido)-2-((6-(prop-2-yn-1-yloxy)hexyl)oxy)tetrahydro-2H-pyran-2-carboxylic acid]	1000 to 10000 nM	< 1000 nM	< 1000 nM
C#CCCOc1ccc(CO[C@]2(C(=O)O)C[C@H](O)[C@@H](NC(=O)CO)[C@H]([C@H](O)[C@H](O)CNC(=O)Cc3ccc(-c4ccccc4)cc3)O2)cc1 [Compound 37, (2R,4S,5R,6R)-6-((1R,2R)-3-(2-([1,1′-biphenyl]-4-yl)acetamido)-1,2-dihydroxypropyl)-2-((4-(but-3-yn-1-yloxy)benzyl)oxy)-4-hydroxy-5-(2-hydroxyacetamido)tetrahydro-2H-pyran-2-carboxylic acid]	< 1000 nM	< 1000 nM	< 1000 nM
C#CCOP(=O)(O)OCCCCCCO[C@]1(C(=O)O)C[C@H](O)[C@@H](NC(=O)CO)[C@H]([C@H](O)[C@H](O)CNC(=O)Cc2ccc(Cl)cc2)O1 [Compound 105, (2R,4S,5R,6R)-6-((1R,2R)-3-(2-(4-chlorophenyl)acetamido)-1,2-dihydroxypropyl)-4-hydroxy-2-((6-((hydroxy(prop-2-yn-1-yloxy)phosphoryl)oxy)hexyl)oxy)-5-(2-hydroxyacetamido)tetrahydro-2H-pyran-2-carboxylic acid]	< 1000 nM	< 1000 nM	< 1000 nM

The remaining lines, values ahead:

Kd [1]	Kd [2]	Kd [3]	SMILES
> 10000 nM	1000 to 10000 nM	> 10000 nM	C#CCOCCOCCO[C@]1(C(=O)O)C[C@H](O)[C@@H](NC(=O)CO)[C@H]([C@H](O)[C@H](O)CNC(=O)c2cccc(O)c2)O1 [Compound 29, (2R,4S,5R,6R)-6-((1R,2R)-1,2-dihydroxy-3-(3-hydroxybenzamido)propyl)-4-hydroxy-5-(2-hydroxyacetamido)-2-(2-(2-(prop-2-yn-1-yloxy)ethoxy)ethoxy)tetrahydro-2H-pyran-2-carboxylic acid]
1000 to 10000 nM	< 1000 nM	< 1000 nM	CCCCCCC[C@]1(C(=O)O)C[C@H](O)[C@@H](NC(=O)CO)[C@H]([C@H](O)[C@H](O)CNC(=O)Cc2ccc(Cl)cc2)O1 [Compound 206, (2R,4S,5R,6R)-6-((1R,2R)-3-(2-(4-chlorophenyl)acetamido)-1,2-dihydroxypropyl)-2-heptyl-4-hydroxy-5-(2-hydroxyacetamido)tetrahydro-2H-pyran-2-carboxylic acid]
1000 to 10000 nM	< 1000 nM	1000 to 10000 nM	C#CCCOCCOCCO[C@]1(C(=O)O)C[C@H](O)[C@@H](NC(=O)CO)[C@H]([C@H](O)[C@H](O)CNC(=O)Cc2ccc(-c3ccc(O)cc3)cc2)O1 [Compound 83, (2R,4S,5R,6R)-2-(2-(2-(but-3-yn-1-yloxy)ethoxy)ethoxy)-6-((1R,2R)-1,2-dihydroxy-3-(2-(4′-hydroxy-[1,1′-biphenyl]-4-yl)acetamido)propyl)-4-hydroxy-5-(2-hydroxyacetamido)tetrahydro-2H-pyran-2-carboxylic acid]
1000 to 10000 nM	< 1000 nM	1000 to 10000 nM	C#CCOc1ccc(CO[C@]2(C(=O)O)C[C@H](O)[C@@H](NC(=O)CO)[C@H]([C@H](O)[C@H](O)CNC(=O)Cc3ccccc3F)O2)cc1 [Compound 165, (2R,4S,5R,6R)-6-((1R,2R)-3-(2-(2-fluorophenyl)acetamido)-1,2-dihydroxypropyl)-4-hydroxy-5-(2-hydroxyacetamido)-2-((4-(prop-2-yn-1-yloxy)benzyl)oxy)tetrahydro-2H-pyran-2-carboxylic acid]

— patent US20250064941A1, “SIGLEC LIGANDS, CONJUGATES, AND METHODS OF USE THEREOF” (Osprey Biopharmaceuticals, Inc., priority 2023, published 2025)
